Assay results reported in article PMC11912224, “A general approach for activity-based protein profiling of oxidoreductases with redox-differentiated diarylhalonium warheads” (Chemical Science, 2025).

Columns and labels:
EUOX (eugenol oxidase) = biological target: T1, EUOX (eugenol oxidase) (Rhodococcus jostii, UniProt Q0SBK1); test: activity-based labelling, in-gel fluorescence; assay type: binding; conditions: covalent; 30 uM probe, 1 h
T1 construct: gene RHA1_ro03282; recombinant; FAD enzyme; details not in main text
T1 sequence (Q0SBK1 1-526): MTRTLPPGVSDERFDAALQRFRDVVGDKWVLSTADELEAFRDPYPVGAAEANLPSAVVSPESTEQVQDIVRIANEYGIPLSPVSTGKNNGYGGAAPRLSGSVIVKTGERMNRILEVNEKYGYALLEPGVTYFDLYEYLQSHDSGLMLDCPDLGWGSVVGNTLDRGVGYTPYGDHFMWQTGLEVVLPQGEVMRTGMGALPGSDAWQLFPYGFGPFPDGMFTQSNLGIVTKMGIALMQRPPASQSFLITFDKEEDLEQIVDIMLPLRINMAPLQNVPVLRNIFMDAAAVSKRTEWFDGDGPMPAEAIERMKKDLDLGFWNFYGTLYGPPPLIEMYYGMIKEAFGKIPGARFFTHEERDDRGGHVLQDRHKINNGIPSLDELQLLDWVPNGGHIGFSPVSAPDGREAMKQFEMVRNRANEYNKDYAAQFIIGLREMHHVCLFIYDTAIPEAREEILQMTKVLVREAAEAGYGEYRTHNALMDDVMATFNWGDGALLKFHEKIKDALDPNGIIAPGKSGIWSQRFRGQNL

[1] = biological target: T2, retinol dehydrogenase RDH7 (Mus musculus, UniProt O88451); test: covalent labelling, streptavidin enrichment, LC-MS/MS; conditions: 30 uM probe, 1 h, mouse liver pieces
T2 construct: native, in intact mouse liver pieces
T2 sequence (O88451 1-316): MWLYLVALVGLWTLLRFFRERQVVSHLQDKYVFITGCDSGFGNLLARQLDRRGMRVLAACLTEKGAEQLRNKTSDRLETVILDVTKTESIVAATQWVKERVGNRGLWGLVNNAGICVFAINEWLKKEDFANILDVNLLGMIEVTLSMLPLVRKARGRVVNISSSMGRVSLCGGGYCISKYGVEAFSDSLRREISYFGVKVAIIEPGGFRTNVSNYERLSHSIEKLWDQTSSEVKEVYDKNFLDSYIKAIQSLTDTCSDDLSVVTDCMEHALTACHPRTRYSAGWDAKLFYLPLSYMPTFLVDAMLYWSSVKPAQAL

## [N-]=[N+]=NCCCCCCCCCCNC(=O)c1ccc([I+]c2ccccc2)cc1 [3aa, diphenyliodonium probe 3aa]
EUOX (eugenol oxidase)
  activity-based labelling, in-gel fluorescence: led to the labeling of several of the tested oxidoreductases
[1]
  covalent labelling, streptavidin enrichment, LC-MS/MS: RDH7 and RDH16 were found to be labeled by probe 3aa very well
